This series can be described thus: solvent given as SMILES.

The structures appear in SMILES notation. Several values for one entry are separate records, joined by “and”; a condition that tells them apart may be missing. Equal entries are not always repeated.

As for `CC(C)(C)c1ccc2c(c1)c1cc(C(C)(C)C)ccc1n2-c1ccccc1-c1nccnc1C#N`, for the setting “in c1cc(-n2c3ccccc3c3ccccc32)cc(-n2c3ccccc3c3ccccc32)c1”, the fluorescence lifetime came out at 9.7 ns.

As to `O=c1cc[nH]c(=O)[nH]1`, under “in CC#N”, the fluorescence lifetime came out at 0.0001 ns.

As to `Nc1ccccc1C(=O)O`, the fluorescence lifetime is 5.7 ns (in C1CCCCC1); 6.9 ns (in CC#N); 7.6 ns (in CCO); 8.7 ns (in CS(C)=O); 8.6 ns and 8.7 ns (in O); 5.4 ns (in OCC(F)(F)F). The molecule further came in with a fluorescence lifetime (in c1ccccc1) of 6.3 ns.

In the case of `COc1ccc(-c2c3cc4ccccc4cc3c(C#Cc3ccccc3)c3cc4ccccc4cc23)cc1`, the fluorescence lifetime (in ClCCl) worked out at 2.2 ns.

`COc1cc(OC)c2cc(C#N)c(=N)oc2c1` showed a fluorescence lifetime (in ClCCl) of 2.4 ns.

The molecule `F[B-]1(F)n2c(c3cccc4cccc2c43)=Nc2cccc[n+]21` registered a fluorescence lifetime (in ClCCl) of 7.1 ns.

`O=C1OC(=O)c2ccc(N(c3ccccc3)c3ccc4ccc5cccc6ccc3c4c56)c3cccc1c23`: the fluorescence lifetime is, setting by setting: (in CCCCCC) 4.36 ns; (in c1ccccc1) 1.17 ns.

On to `CCCCC1=Cc2c3ccc4cccc5ccc(c6cc(-c7ccccc7)n(c26)P1(=O)c1ccccc1)c3c45` (stereo unspecified), for which the fluorescence lifetime by setting is: (in C1CCCCC1) 1.9 ns; (in C1CCOC1) 1.7 ns; (in C1COCCO1) 1.8 ns; (in CC#N) 1.8 ns; (in CC(C)=O) 1.8 ns; (in CO) 1.7 ns. The fluorescence lifetime (in Cc1ccccc1) was found to be 1.7 ns, the fluorescence lifetime (in ClC(Cl)Cl) came out at 1.6 ns and the fluorescence lifetime (in ClCCl) is 1.6 ns.

With `COc1ccc(/C=C/C2=CC(/C=C/c3ccc(OC)c4ccccc34)=[O+][B-](F)(F)O2)c2ccccc12`, the fluorescence lifetime runs as follows: (in CC#N) 0.65 ns; (in CC(C)=O) 1.03 ns; (in CCOC(C)=O) 1.51 ns; (in CCOCC) 1.34 ns; (in ClC(Cl)(Cl)Cl) 1.18 ns; (in ClCCl) 1.96 ns.

For the molecule `C#CCNC1=C2C=CC=[N+]2[B-](F)(F)n2cccc21`, the fluorescence lifetime (in C1CCCCC1) was 6.36 ns and 5.34 ns; the fluorescence lifetime (in CC(C)=O) came out at 4.92 ns; the fluorescence lifetime (in CCCCO) came out at 6.02 ns; the fluorescence lifetime (in CCCO) turned out to be 5.16 ns; the fluorescence lifetime (in CCO) was 4.14 ns and 3.81 ns; the fluorescence lifetime (in CCOC(C)=O) was 5.13 ns. Also, the fluorescence lifetime was determined as 2.98 ns (in CN(C)C=O); 3.22 ns (in CO); 1.73 ns (in CS(C)=O); 6.56 ns (in Cc1ccccc1); 5.29 ns (in ClC(Cl)Cl); 6.34 ns (in OCC(F)(F)F). For the same molecule, the fluorescence lifetime (in c1ccccc1) was determined as 6.28 ns.

As to `O=C1/C(=C2\Sc3ccc(S(=O)(=O)Nc4ccccc4)cc3C2=O)Sc2ccc(S(=O)(=O)Nc3ccccc3)cc21`, the fluorescence lifetime was 6.06 ns (in C1COCCO1), 0.13 ns (in CO) and 0.12 ns (in CS(C)=O).

On to `Fc1ccc(-c2ccc(-c3cc(-c4ccccn4)nc(-c4ccccn4)c3)cc2)c(F)c1`, for which, under “in ClCCl”, the fluorescence lifetime was 1.77 ns.

Molecule `CCc1c(C)[nH]c(C2=[N+]3C(=C(C)c4c(C)c(CC)c(C)n4[B-]3(F)F)c3ccccc32)c1C` gave a fluorescence lifetime (in ClCCl) of 6.21 ns.

The molecule `N#Cc1ccc(C2=Cc3ccccc3P2(=O)c2ccccc2)cc1` (stereo unspecified) displayed a fluorescence lifetime (in ClCCl) of 4.8 ns.

Where the note is “in c1ccc2c(c1)c1ccccc1n2-c1ccc(-c2ccc(-n3c4ccccc4c4ccccc43)cc2)cc1”, `O=P1(c2ccccc2)c2cc(N3c4ccccc4Sc4ccccc43)ccc2-c2ccc(N3c4ccccc4Sc4ccccc43)cc21` yielded a fluorescence lifetime of 46.1 ns.

Molecule `Cc1cc(=O)oc2c1cc(Cl)c1occ(C)c12` registered a fluorescence lifetime (in C1COCCO1) of 0.07 ns, a fluorescence lifetime (in CC#N) of 0.27 ns, a fluorescence lifetime (in CCO) of 0.21 ns and a fluorescence lifetime (in OCC(F)(F)F) of 0.72 ns.

Consider `COc1ccc(-c2nc(/C(C#N)=C/c3ccc(C#N)cc3)sc2-c2ccc(OC)cc2)cc1`, for which the fluorescence lifetime (in CC#N) was 2.9 ns.

Turning to `O=C(O)c1ccccc1-c1nc(-c2ccccc2)c2ccccn12`, the fluorescence lifetime (in CC#N) was found to be 5.5 ns.

With `CCCCCCCCN1C(=O)c2ccc3c4c(-c5ccc6c7ccccc7n(-c7ccccc7)c6c5)cc5c6c(cc(-c7ccc8c9ccccc9n(-c9ccccc9)c8c7)c(c7ccc(c2c37)C1=O)c64)C(=O)N(CCCCCCCC)C5=O`, where the note is “in ClC(Cl)Cl”, the fluorescence lifetime came out at 13.2 ns.

These data come from the Deep4Chem optical property database.
